Reference: ChEMBL document CHEMBL4196018, “New antitumor anthra[2,3-b]furan-3-carboxamides: Synthesis and structure-activity relationship” (Eur J Med Chem, 2018)
Calls of active or inactive are those of the source. The rule behind the calls is not given here.

What was measured:
HeLa = assay: Antiproliferative activity against human HeLa cells after 72 hrs by MTT assay; assay type: functional, cell-based
TMK-1 [1] = assay: Induction of apoptosis in human TMK1 cells after 24 hrs by Annexin V-FITC staining based flow cytometry; assay type: functional, cell-based
Lymphocyte = assay: Cytotoxicity against human lymphocytes assessed as reduction in cell viability at 25 uM after 72 hrs by MTT assay; assay type: cell-based
K562 [2] = assay: Cell cycle arrest in human K562 cells assessed as accumulation at G2/M phase at 1 uM after 24 hrs by propidium iodide staining based flow cytometry; assay type: functional
MKN-45 [3] = assay: Induction of ROS generation in human MKN45 cells at 0.1 to 1 uM after 30 mins by H2DCFDA staining based flow cytometry; assay type: functional, cell-based
TMK-1 [4] = assay: Induction of apoptosis in human TMK1 cells at 1 uM after 24 hrs by Annexin V-FITC staining based flow cytometry relative to control; assay type: functional
[5] = Resistance index, ratio of IC50 for human K562/4 cells to IC50 for human K562 cells; assay type: functional
[6] = Cell cycle arrest in human K562/4 cells assessed as accumulation at sub-G1 phase at 1 uM up to 48 hrs by propidium iodide staining based flow cytometry relative to control; assay type: functional
[7] = Antiproliferative activity against human K562/4 cells after 72 hrs by MTT assay; assay type: functional, cell-based; conditions: K562/4, 72 h
CCRF-CEM = assay: Antiproliferative activity against human CEM cells after 72 hrs by MTT assay; assay type: functional, cell-based
TMK-1 [8] = assay: Induction of ROS generation in human TMK1 cells at 0.1 to 1 uM after 30 mins by H2DCFDA staining based flow cytometry; assay type: functional, cell-based
L1210 = assay: Antiproliferative activity against mouse L1210 cells after 48 hrs by MTT assay; assay type: functional, cell-based; conditions: L1210, 48 h
Homo sapiens = species on record: Homo sapiens; assay: Cell cycle arrest in human K562/4 cells assessed as accumulation at G2/M phase at 1 uM after 24 hrs by propidium iodide staining based flow cytometry; assay type: functional
HCT-116 [9] = assay: Antiproliferative activity against human HCT116 cells after 72 hrs by MTT assay; assay type: functional, cell-based; conditions: HCT-116, 72 h
[10] = Resistance index, ratio of IC50 for p53 knockout human HCT116 cells to IC50 for human HCT116 cells; assay type: functional
MKN-45 [11] = assay: Induction of apoptosis in human MKN45 cells at 1 uM after 24 hrs by Annexin V-FITC staining based flow cytometry relative to control; assay type: functional
HCT-116 [12] = assay: Antiproliferative activity against p53 knockout human HCT116 cells after 72 hrs by MTT assay; assay type: functional, cell-based; conditions: HCT-116, 72 h
K562 [13] = assay: Cell cycle arrest in human K562 cells assessed as accumulation at sub-G1 phase at 1 uM up to 48 hrs by propidium iodide staining based flow cytometry relative to control; assay type: functional
[14] = molecular target: T1, DNA topoisomerase 1 (Homo sapiens) (UniProt P11387); assay: Inhibition of human topoisomerase-1 at 10 uM using supercoiled pBR322 DNA as substrate after 30 mins by agarose gel electrophoresis method
T1 sequence (whole entry): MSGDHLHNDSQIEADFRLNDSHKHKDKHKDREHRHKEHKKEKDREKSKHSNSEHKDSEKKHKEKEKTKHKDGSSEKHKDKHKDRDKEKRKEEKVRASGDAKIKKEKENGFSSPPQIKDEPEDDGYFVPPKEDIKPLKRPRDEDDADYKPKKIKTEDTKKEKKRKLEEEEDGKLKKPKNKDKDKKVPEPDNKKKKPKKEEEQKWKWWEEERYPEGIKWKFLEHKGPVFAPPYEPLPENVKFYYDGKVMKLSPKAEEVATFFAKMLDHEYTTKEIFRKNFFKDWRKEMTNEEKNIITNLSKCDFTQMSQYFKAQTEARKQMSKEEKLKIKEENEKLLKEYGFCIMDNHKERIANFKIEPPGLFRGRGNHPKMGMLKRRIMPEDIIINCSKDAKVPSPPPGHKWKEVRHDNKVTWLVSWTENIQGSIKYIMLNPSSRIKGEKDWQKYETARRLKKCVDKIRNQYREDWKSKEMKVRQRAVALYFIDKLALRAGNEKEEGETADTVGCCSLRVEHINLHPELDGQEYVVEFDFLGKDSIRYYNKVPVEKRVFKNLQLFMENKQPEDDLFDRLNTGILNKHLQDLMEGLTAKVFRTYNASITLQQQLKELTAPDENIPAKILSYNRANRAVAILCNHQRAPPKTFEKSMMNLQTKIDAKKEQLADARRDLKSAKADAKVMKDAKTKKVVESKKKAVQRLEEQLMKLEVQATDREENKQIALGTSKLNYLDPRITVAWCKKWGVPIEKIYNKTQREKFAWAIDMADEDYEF

[15] = Substrate activity at P-gp in human K562/4 cells assessed as test compound accumulation at 2 uM after 1 to 24 hrs by flow cytometry; assay type: ADME, cell-based
MKN-45 [16] = assay: Induction of apoptosis in human MKN45 cells after 24 hrs by Annexin V-FITC staining based flow cytometry; assay type: functional, cell-based
K562 [17] = assay: Antiproliferative activity against human K562 cells after 72 hrs by MTT assay; assay type: functional, cell-based; conditions: K562, 72 h
[18] = Drug uptake in human K562 cells at 2 uM after 1 to 24 hrs by flow cytometry; assay type: ADME, cell-based; conditions: k562, 2 µM

IC50 (HeLa): 700 nM | IC50 (CCRF-CEM): 900 nM | IC50 (L1210): 700 nM | IC50 (HCT-116 [9]): 600 nM | IC50 (HCT-116 [12]): 800 nM | inhibition [14]: Active | Activity [15]: Not Active | IC50 (K562 [17]): 600 nM | Drug uptake [18]: Active
SMILES: O=C1c2ccccc2C(=O)c2c1c(O)c1occ(C(=O)NC3CCCNC3)c1c2O (racemic)
Activity (TMK-1 [1]): Dose-dependent effect | Activity (Lymphocyte): Non-Toxic | Activity (K562 [2]): Active | Activity (MKN-45 [3]): Active | Activity (TMK-1 [4]): 60 - 90% | Ratio IC50 [5]: 2.1 | Activity [6]: >70% | IC50 [7]: 1200 nM | Activity (TMK-1 [8]): Active | Activity (Homo sapiens): Active | Ratio IC50 [10]: 1.3 | Activity (MKN-45 [11]): 60 - 90% | Activity (K562 [13]): >70% | Activity (MKN-45 [16]): Dose-dependent effect
